# Laboratory results taken from patent publication US11234985B2, “Antiviral therapy” (VIIV HEALTHCARE COMPANY, priority 2010, dated 2022).
# Test system: HIV-1 (strain IIIB)
# Assay: Antiviral HIV activity in combination, tetrazolium-based (MTS) colorimetric checkerboard assay in MT-4 cells
# Format: cell-based
# Conditions: HIV-1 IIIB infected MT-4 cells, 5 days
# Method: Antiviral HIV activity was measured by means of a tetrazolium-based colorimetric procedure in the human T-cell leukemia virus (HTLV-1) transformed cell line MT-4. Aliquots of test compound were diluted vertically across a deep-well master assay plate, in medium (RPMI 1640, 10% vol./vol. fetal bovine serum (FBS), and 10 μg/mL gentamicin), at concentrations that were approximately 40-fold higher than the final assay concentration. Serial dilutions were made at either 1:2 or 1:3.16 ratios. HIV inhibitors were diluted horizontally across master assay plates, also in concentrations that were approximately 40-fold higher than the final assay concentration. Small aliquots of both the vertically-diluted and the horizontally-diluted compounds were combined in daughter plates using an automated 96-well pipetting system (RapidPlate-96, Zymark Corp.). Checkerboard style dilutions were arranged so that every concentration of test compound was tested in the presence and absence of every concentration of the HIV inhibitors. Anti-HIV activity tests were performed in triplicate assays, or more, of each combination. Exponentially growing MT-4 cells were harvested and centrifuged at 1,000 rpm for 10 minutes in a Jouan centrifuge (Model CR 4 12). Cell pellets were re-suspended in fresh medium (RPMI 1640, 20% vol./vol. FBS, 20% vol./vol. IL-2, and 10 μg/mL gentamicin) to a density of 1.25×10^6 cells/mL. Cell aliquots were infected by the addition of HIV-1 (strain IIIB) diluted to give a viral multiplicity of infection (MOI) of 73 pfU per 1×10^4 cells. A similar cell aliquot was diluted with medium to provide a mock-infected control. Cell infection was allowed to proceed for 1 hour at 37° C. in a tissue culture incubator with humidified 5% CO2 atmosphere. After the 1 hour incubation the virus/cell suspension was added to each well of the plates containing pre-diluted compounds. Plates were then placed in a tissue culture incubator with humidified 5% CO2 for 5 days. At the end of the incubation period, […] of CellTiter 96 MTS reagent (Promega no. G3581) was added to each well of the incubation plate. Plates were incubated at 37° C. for 2 to 3 hours to allow for color development. O.D. was measured at […] using a microplate absorbance reader (Tecan no. 20-300).
# HIV-1 strain IIIB, wild-type laboratory strain, virus titer=6.896 E4 TCID50/mL.
# Although some assay formats might theoretically miss antagonism due to combination cytotoxicity, the approach described here should not miss an antagonistic effect. The readout in the MT-4 cell assay utilizes MTS, a tetrazolium-based staining reagent where changes in optical density (O.D.) of the reagent are used to estimate the total cell number remaining after treatment. Final MT-4 cell numbers may decrease due to two effects. First, an HIV-induced cytotoxicity may occur when HIV kills greater than 75% of the MT-4 cells during the 5 days following infection. Second, a compound-induced cytotoxicity may occur, where the compound either directly kills the MT-4 cells or prevents cell growth (stasis) over the 5 days in either infected or uninfected cells. In either of these situations the O.D. is low as compared with infected cells protected by anti-HIV-1 compounds or relative to untreated and uninfected control cells. Since both cytotoxic effects and antagonism of anti-HIV activity would lead to lower O.D. we should not miss an antagonistic effect due to combination cytotoxicity, but could underestimate synergistic combinations.
# Within assay combination cytotoxicity was evaluated by comparing wells containing the uninfected MT-4 cells from the assay plates that contained the highest concentration of test compound or the comparator compound, with wells containing […] MT-4 cells under the corresponding highest combination concentrations. For each of these values there is one well per assay plate and thus at least 3 wells per combination assay. […]
smiles,measurement,setting,value
C[C@@H]1CCO[C@H]2Cn3cc(C(=O)NCc4ccc(F)cc4F)c(=O)c(O)c3C(=O)N12 [formula (I)],interaction (deviation from dosewise additivity) of anti-HIV activity,in combination with abacavir,synergistic
same,interaction (deviation from dosewise additivity) of anti-HIV activity,in combination with adefovir,additive
same,interaction (deviation from dosewise additivity) of anti-HIV activity,in combination with amprenavir,synergistic
same,interaction (deviation from dosewise additivity) of anti-HIV activity,in combination with efavirenz,synergistic
same,interaction (deviation from dosewise additivity) of anti-HIV activity,in combination with enfuvirtide,synergistic
same,interaction (deviation from dosewise additivity) of anti-HIV activity,in combination with lopinavir,synergistic
same,interaction (deviation from dosewise additivity) of anti-HIV activity,in combination with maraviroc,additive
same,interaction (deviation from dosewise additivity) of anti-HIV activity,in combination with nevirapine,synergistic
same,interaction (deviation from dosewise additivity) of anti-HIV activity,in combination with raltegravir,additive
same,interaction (deviation from dosewise additivity) of anti-HIV activity,in combination with stavudine,synergistic
same,effect of the presence of ribavirin on anti-HIV activity,in the presence of ribavirin,not affected
